Several values for one entry are separate records, joined by “and”; a condition that tells them apart may be missing. Equal values may be shown once.
Assays:
[1] = molecular target: T1, α-Synuclein (αS) aggregation (Homo sapiens, UniProt P37840); assay: Thioflavin T (ThT) dye-based αS aggregation assay (de novo); assay type: biochemical; conditions: for ThT intensity of Synuclein with ligand, Average / ThT intensity of Synuclein with ligand, Trial 1-3: sheet S17; for ThT intensity of Synuclein with ligand, Average: average of 3 trials, Synuclein alone 206, ThT control 37; for ThT intensity of Synuclein with ligand, Trial 1-3: individual trials, Synuclein alone average 206, ThT control average 37
T1 construct: made in house; host or cells: E. coli BL21(DE3)
Procedure: We used a 2D FAST approach in OPs to identify potent antagonists of the aggregation of αS. In this approach, we start with a library of monopyridyls with different functional groups. The library of monopyridyls was synthesized using 2-chloro-6-methyl-3-nitropyridine as a common precursor, which was treated with primary alcohols with diverse side chain functionalities via a one-pot reaction (Fig. 1B, a and see Supplementary information for synthetic details). […] We selected the side chains containing hydrophobic, polar, positively charged, and negatively charged functional groups, which mimic the side chains of the amino acids (Fig. 1C). […] The monopyridyl library was screened against the aggregation of 100 μM αS at an equimolar ratio using Thioflavin T (ThT) dye-based aggregation assay (Fig. 1B, b). […] The chloro-dipyridyl was reacted with a library of primary amines/thiols to synthesize a library of dipyridyls (Fig. 1B, e) using a one-pot reaction. […] However, a few dipyridyls required column chromatography to separate them from the starting material side chains because of their very high boiling point (7 out of 21 dipyridyls required column, Supplementary Fig. 1). […]
Aggregation Kinetics were measured according to a previously described protocol. […] The solutions were placed in a ThermoMixer (Eppendorf, Hamberg, Germany) at 37 °C with constant shaking at 1300 rpm (rpm). At different time points, 5 μL aliquots of each αS solution were added to 95 μL PBS containing 50 μM Thioflavin T (ThT) dye in a Costar black 96 well plate (Corning Inc., Kennebunk, ME). ThT fluorescence intensity was measured (λex = 450 nm and λem = 490 nm) on an Infinite M200PRO plate reader (Tecan, Männedorf, Switzerland), and plotted against time to give a sigmoidal curve typical of amyloid aggregation. For the single point ThT aggregation, 100 μM αS, in the absence and presence of ligands, was aggregated under the described conditions and the ThT fluorescence was reported at 96 h. The reported ThT intensity values are the average of each experiment conducted in triplicate, with the error bars representing the standard deviations or standard error of the mean (s.e.m.) as described in the main manuscript.

[2] = tested on: UA196 worms (human αS and GFP in DA neurons); assay: Confocal counting of healthy DA neurons in UA196 worms, early treatment (day two and four); assay type: in vivo, C. elegans; conditions: for number of intact DA neurons in UA196 worms (max. 60): 50 µM ligand on day two and four, day 15 (untreated 13.5); for Number of healthy DA neurons per trial (sheet 7L): UA196 worms + ligand, Day 15, single trials; for Total neurons, UA196 worms+Ligands: one value per trial, day not given for ligand (controls: Day 3, Day 15)
From the text: The aggregation of αS is associated with the neurodegeneration of DA neurons, which is a pathological hallmark of PD. Next, we investigated the neuroprotective effect of NS163 on the intraneuronal αS aggregation-mediated degeneration of DA neurons in a well-established C. elegans PD model (UA196)[20],[72]–[75]. The UA196 worms express both human αS and GFP in DA neurons under the control of the dopamine promoter genotype (Pdat-1::GFP; Pdat-1::α-SYN). The expression and aggregation of αS in six DA neurons that are located within the anterior region of worms lead to progressive neurodegeneration characteristics during the aging of UA196 worms. This strain has been used to gain insights into the PD-associated mechanisms and to assess the neuroprotective effect of ligands against the intraneuronal αS aggregation[20],[72]–[75]. During the aging of worms, αS protein aggregates and degenerates the DA neurons as represented by the gradual loss of cell bodies as observed from day 3 (Fig. 7b, c, filled red arrow) to day 5 (Fig. 7d, e, empty red arrow), to day 15 (Fig. 7f, g, empty red arrow). Additionally, there was fragmentation and blebbing of neurites from day 3 (Fig. 7b, c, filled yellow arrow) to day 5 (Fig. 7d, e, empty yellow arrow), which has been observed by others as well[72]–[75]. The maximum number of healthy DA neurons in one UA196 worm is six on day 3 (no degeneration) and we used 10 worms/biological replicate, which makes a total of 60 healthy DA neurons/biological replicate. Therefore, for each study, the maximum number of healthy DA neurons in UA196 worms is 60 as an average for each biological replicate. […] None of the UA196 worms had all six healthy DA neurons on day 5 (Fig. 7k, -NS163) and there was a gradual decline in the total number of healthy DA neurons in UA196 worms (Supplementary Fig. 26a). […] The average number of intact DA neurons in UA196 worms treated with NS163 was 59.5, 58.7, and 57.3 on day five, 10, and 15, respectively (Fig. 7j, red line). Additionally, the total number of treated worms with all six intact DA neurons were 57, 52, and 47 on day 5, 10, and 15, respectively (Fig. 7k, Supplementary Fig. 26b).
In UA196 strain, human αS and GFP are expressed in DA neurons under control of a dopamine transporter-specific promoter [Pdat-1::α-syn+Pdat-1::GFP], which results in age-dependent neurodegeneration of six DA neurons.
This experiment was performed based on previously described protocols with slight modifications[24],[65],[88]. Briefly, the worm strains (NL5901 or UA196) were bleached at the same time and the eggs were incubated on PLATE 1. On day two, the worms were divided into two batches. One half of the worms were transferred (using M9 buffer) on PLATE 2 (without ligand) and the second half of the worms were transferred to PLATE 3 (with ligand). The concentration of the ligands varied from 10–50 µM as described in the main manuscript. The worms were incubated on PLATE 2 or PLATE 3 up to day 3 at 20 °C in an incubator with constant humidity. On day four, the ligand (10–50 µM, stock conc. = 10 mM in DMSO, DMSO from 0.1–0.5%, v/v) was added again to PLATE 3. For confocal imaging, at least 10 worms per condition (from PLATE 2 or PLATE 3) were transferred to a cover slide containing an anesthetic (40 mM sodium azide), and mounted on glass microscope slide containing 2% agarose pads using a reported protocol. The images of the worms were collected using an Olympus Fluoview FV3000 confocal/2-photon microscope (40 x Plan-Apo/1.3 NA objective with DIC capability) and processed using the OlympusViewer in ImageJ software. For NL5901 worms, the inclusions of the aggregated αS (GFP puncta in the muscle cells) were manually counted (10 worms per condition) for the five-day imaging period (day 5 to day 9) for PLATE 2 or PLATE 3. […]

[3] = tested on: UA196 worms; assay: Confocal counting of healthy DA neurons, post-disease onset PD model of UA196 worms (treatment on day five); assay type: in vivo, C. elegans; conditions: for number of intact healthy DA neurons (max. 60): day 15 (untreated 13.8 / 12.8); for healthy DA neurons per trial: UA196 worms+Ligands, single trials 1-6, day not given; for Healthy DA neurons, UA196 worms+Ligands: individual trials 1-6
Procedure: The UA196 worms were bleached, and the eggs were incubated on PLATE 1. On day two, the UA196 worms were transferred (using M9 buffer) on PLATE 2 (without ligand). On day five, 10 UA196 worms were used to determine the number of healthy DA worms using confocal imaging (as described earlier) prior to the treatment with ligands on day five. In tandem, ~50 worms were transferred to PLATE 3 (with ligand) using M9 buffer (10-20 µL) and the plate was incubated at 20 °C in the incubator. On days 10 and 15, 10 UA196 worms from PLATE 2 (without ligand) and PLATE 3 (with ligand) were used to determine the number of healthy DA worms using confocal imaging (as described earlier). For each condition, six biological replicates were performed and at least 10 technical replicates were used for each biological replicate. […] (n = 6 independent experiments and each n consisted of a minimum of ten technical replicates).

[4] = 100 µM αS + equimolar ligand, comparison with reported ligands Fig. 5f, time 0 hr

| ThT fluorescence intensity, Average [1, 4] | ThT fluorescence intensity, Average ([1]; Fig. 5f profile, time 6 hr) | ThT fluorescence intensity, Average ([1]; Fig. 5f profile, time 12 hr) | ThT fluorescence intensity, Average ([1]; Fig. 5f profile, time 24 hr) | ThT fluorescence intensity, Average ([1]; Fig. 5f profile, time 36 hr) | ThT fluorescence intensity, Average ([1]; Fig. 5f profile, time 48 hr) | ThT fluorescence intensity, Average ([1]; Fig. 5f profile, time 72 hr) | ThT fluorescence intensity, Average ([1]; Fig. 5f profile, time 96 hr) | ThT intensity of Synuclein with ligand, Average [1] | ThT intensity of Synuclein with ligand, Trial 1-3 [1] | decrease of the overall ThT intensity ([1]; 100 µM αS, equimolar, after 96 h) | Compound | number of intact DA neurons in UA196 worms (max. 60) [2] | Number of healthy DA neurons per trial (sheet 7L) [2] | Total neurons, UA196 worms+Ligands [2] | number of intact healthy DA neurons (max. 60) ([3]; 50 μM ligand on day five) | healthy DA neurons per trial [3] | Healthy DA neurons, UA196 worms+Ligands [3] | rescue of the degeneration of DA neurons in UA196 worms, in words ([2]; 50 μM ligand) | rescue of the degeneration of DA neurons in the post-disease onset PD model, in words ([3]; 50 μM ligand on day five, day 15) |
| --- | --- | --- | --- | --- | --- | --- | --- | --- | --- | --- | --- | --- | --- | --- | --- | --- | --- | --- | --- |
| 55.6667 | 61.3333 | 52.3333 | 42 | 69.6667 | 159.667 | 195 | 186 | 186.333 | 176 and 194 and 189 | – | C=C(c1ccc(C(=O)O)cc1)c1cc2c(cc1C)C(C)(C)CCC2(C)C [Bexarotene] | 19.3 | 19 and 22 and 20 and 16 and 21 and 18 | 19 and 22 and 20 and 16 and 21 and 18 | 13.2 | 11 and 17 and 13 and 10 | 11 and 17 and 13 and 10 | – | – |
| 56 | 50.6667 | 62.3333 | 61.3333 | 75.6667 | 84 | 151.667 | 150.333 | 150.333 | 126 and 174 and 151 | ~ 25% | O=C(O[C@@H]1Cc2c(O)cc(O)cc2O[C@@H]1c1cc(O)c(O)c(O)c1)c1cc(O)c(O)c(O)c1 [EGCG] | 30.5 | 26 and 33 and 32 and 27 and 31 and 34 | 26 and 33 and 32 and 27 and 31 and 34 | 20.5 | 24 and 17 and 26 and 18 and 21 | 24 and 17 and 26 and 18 and 21 | moderate in rescuing | moderate in rescuing |
| 49.6667 | 48.3333 | 49.6667 | 78.6667 | 140.667 | 137 | 175.333 | 229.667 | 229.667 | 238.6 and 233 and 217.4 | – | OCCc1ccc(O)cc1 [Tyrosol] | 21.7 | 22 and 23 and 17 and 21 and 24 | 22 and 23 and 17 and 21 and 24 | 14.3 | 12 and 19 and 17 and 11 and 15 | 12 and 19 and 17 and 11 and 15 | – | – |
| 62.3333 | 44 | 66.6667 | 135.333 | 121.333 | 133.333 | 167.333 | 165.667 | 165.667 | 177.5 and 155 and 164.5 | – | CCCC(CCC)C(=O)O [Valporic acid] | 18.7 | 21 and 16 and 22 and 17 and 20 | 21 and 16 and 22 and 17 and 20 | 13.5 | 9 and 17 and 15 and 11 and 16 and 13 | 9 and 17 and 15 and 11 and 16 and 13 | – | – |
